Reference: patent publication US8586719B2, “Triterpenes for modulating gene expression and cell membrane, and as antiprotozoal agents” (Pacific Arrow Limited, priority 2005, dated 2013)

Key:
[1] = system: protein phosphatase 1, regulatory (inhibitor) subunit 15A (PPP1R15A); assay: Microarray gene expression in ES2 cells: PPP1R15A; type: cell-based, human
From the text: (§1) The composition comprises bioactive compounds from natural plants or synthesis. The majority of the plants are from the Sapindaceae family, which has 140-150 genera with 1400-2000 species. The program is based on our purification methods and biological assays including the MTT assay See International Application No. PCT/US05/31900, filed Sep. 7, 2005, U.S. Ser. No. 11/289,142, filed Nov. 28, 2005, and U.S. Ser. No. 11/131,551, filed May 17, 2005, and PCT/US2008/002086, 1188-ALA-PCT, filed Feb. 15, 2008, the contents of which are incorporated herein by reference. The details of Analysis of gene expression of ES2 cells after Y-treatment by Microarray, Data Analysis Methods and Western blot in PCT/US2008/002086, 1188-ALA-PCT, filed Feb. 15, 2008, the contents of which are incorporated herein by reference

[2] = system: thrombospondin 1 (THBS1); assay: Microarray gene expression in ES2 cells: thrombospondin; type: cell-based, human
From the text: as §1

[3] = system: ANGPT2 (angiopoietin 2); assay: Gene expression by Real-time PCR: ANGPT2; type: cell-based; settings: DMSO control = 100
From the text: (§2) Determination of gene expression by Real-time PCR method (Brilliant QPCR, Agilent Technologies): The real-time polymerase chain reactions further confirm the results obtained from micro array analysis. The Real-time PCR results (shown below) confirmed that Compound Y3 and YM increase the expression of the genes: ANGPT2, DDIT3, LIF and NFKB1Z

[4] = system: Fibronectin; assay: Fibronectin secretion, brain glioblastoma T98G cells; type: cell-based, human; settings: Homo sapiens, T98G
Experimental: (§3) Reduction of Fibronectin secretion from ES2 cells after xanifolia-Y treatment. • (Results of F1, F3, F4, F5, F7, F8, F11, F12A, F15, F16, F17) Data in PCT/US2008/002086, 1188-ALA-PCT, filed Feb. 15, 2008 are incorporated herein by reference • (F11) For lung carcinoma cells (H460), at concentration of 20 ug/ml, there are inhibitions of Fibronectin secretion ranged from 20-60%. • (F12A) For bladder carcinoma cells (HTB-9), Xanifolia-Y (10 ug/ml) inhibits 50% of Fibronectin secretion. • (F15) In liver HepG2 cells. 10 ug/ml of xanifolia-Y inhibits 42% secretion of Fibronectin. • (F16) Incubation of brain glioblastoma T98G cells with 10 ug/ml of xanifolia-Y inhibits 27% Fibronectin secretion and with 20 ug/ml Y inhibits 74% Fibronectin secretion. • (F17) For skin SK-MeI-5 cells, the inhibition is 40-57% with 20 ug/ml of Xanifolia-Y.

[5] = system: Fibronectin; assay: Fibronectin secretion from ES2 cells; type: cell-based, human
Experimental: as §3

[6] = system: Fibronectin; assay: Fibronectin secretion, skin SK-MEL-5 cells; type: cell-based, human; settings: Homo sapiens, SK-MEL-5; skin SK-MeI-5 cells; 20 ug/ml
Experimental: as §3

[7] = system: ITGAV (integrin alpha V); assay: Gene expression by Real-time PCR: ITGAV; type: cell-based; settings: control = 100
From the text: as §2

[8] = system: FN1 (fibronectin 1); assay: Gene expression by Real-time PCR: FN1; type: cell-based; settings: control = 100
From the text: as §2

[9] = system: regulator of G-protein signalling 4 (RGS4); assay: Microarray gene expression in ES2 cells: regulator of G-protein; type: cell-based, human
From the text: as §1

[10] = system: ES2 (human ovarian cancer) xenograft tumor; assay: Genesis of blood vessels in xenograft tumor treated with compound Y; type: in vivo, Athymic Nu/Nu mice; settings: ES2 i.p. xenograft, 2.5 mg/kg i.p. daily days 10-15 and 18-22, H&E sections
Experimental: Method: Athymic Nu/Nu mice (5-6 weeks old) are divided into two groups (1 and 2) with 5 animals in each group. On day 0, all mice were transplanted intra-peritoneally with one million ES2 (human ovarian cancer) cells. Animals were randomly divided into two groups:
Group 2: Drug-treatment group. On days 10-15 and 18-22, animals received daily drug administration of Xanifolia-Y, by i.p. route at dosage of 2.5 mg/kg.
Animals with high tumor burden were euthanized and solid tumors were taken out from these mice (between 18-27 days). Tumor tissues fixed with formalin at room temperature. The fixed tissues were sectioned and stained with Haematoxylin and eosin (H&E). The red blood cells inside the micro blood vessels were identified under a microscope.

[11] = system: leptin; assay: Expression of leptin; type: cell-based
[12] = system: angiopoietin 1; assay: Microarray gene expression in ES2 cells: angiopoietin 1; type: cell-based, human; settings: micro array
From the text: as §1
Angiogenesis is a process involving the growth of new blood vessels. It is a normal process in growth and development. However, this is also a fundamental step in the transition of tumors from a dormant state to a malignant state. The angiopoietins are protein growth factors that modulate angiogenesis. […]

[13] = system: dual specificity phosphatase 10 (DUSP10); assay: Microarray gene expression in ES2 cells: DUSP10; type: cell-based, human
From the text: as §1

[14] = system: Fibronectin; assay: Fibronectin secretion, bladder carcinoma cells (HTB-9); type: cell-based, human; settings: Homo sapiens; Bladder HTB-9; 10 ug/ml (table: label suffix -10)
Experimental: as §3

[15] = system: DDIT3 (DNA-damage-inducible transcript 3); assay: Gene expression by Real-time PCR: DDIT3; type: cell-based; settings: DMSO control = 100
From the text: as §2

[16] = system: potassium channel, subfamily U, member 1 (KCNU1); assay: Microarray gene expression in ES2 cells: potassium channel; type: cell-based, human; settings: ID 237273_at
From the text: as §1

## C/C=C(/C)C(=O)O[C@H]1[C@H](OC(=O)/C(C)=C\C)[C@@]2(CO)C(CC1(C)C)C1=CCC3[C@@]4(C)CC[C@H](O[C@@H]5OC(C(=O)O)[C@@H](O)[C@@H](O[C@@H]6O[C@@H](CO)[C@@H](O)C6O)C5O[C@@H]5OC(CO)[C@H](O)[C@@H](O)C5O)C(C)(C)C4CC[C@@]3(C)[C@]1(C)[C@@H](O)[C@H]2O (stereo partly drawn) [Y, 3-O-[β-D-galactopyranosyl(1→2)]-α-L-arabinofuranosy (1→3)-β-D-glucuronopyranosyl-21,22-O-diangeloyl-3β, 15α, 16α, 21β, 22α, 28-hexahydroxyolean-12-ene]
[1]; 37028_at
  PPP1R15A expression (given as Y/D, YM/D): 2.4
[1]; 202014_at
  PPP1R15A expression (given as Y/D, YM/D): 2.6
[2]; probe set 201108_s_at
  THBS1 expression, treated/D (DMSO control): −1.7
[2]; probe set 201109_s_at
  THBS1 expression, treated/D (DMSO control): −2.0
[2]; probe set 201110_s_at
  THBS1 expression, treated/D (DMSO control): −1.8
[3]
  ANGPT2 expression, % of control: 300 % of control
[4]; read-out: % inhibition of Fibronectin secretion
  inhibition at 10 µg/mL: 27%
[4]; read-out: inhibition of Fibronectin secretion
  inhibition at 20 µg/mL: 74%
[5]
  Fibronectin secretion from ES2 cells: Reduction
[6]
  inhibition at 20 µg/mL: 40 to 57%
[7]
  ITGAV expression, % of control: 63.8 % of control
[8]
  FN1 expression, % of control: 44.1 % of control
[9]; probe set 204337_at
  RGS4 expression, treated/D (DMSO control): −3.4
[9]; probe set 204338_s_at
  RGS4 expression, treated/D (DMSO control): −2.5
[9]; probe set 204339_s_at
  RGS4 expression, treated/D (DMSO control): −3.5
[10]; listed as Xanifolia Y
  blood vessels in tumor sections: More blood vessels were observed in the control Group 1 than those in the drug-treated Group 2
[10]; listed as Xanifolia-Y
  blood vessels in tumor sections: more blood vessels were observed in the control Group1 than those in the drug-treated Group 2
[11]
  expression of leptin: inhibit
[12]
  gene expression of angiopoietin 1: inhibit
[13]; 215501_s_at
  DUSP10 expression (given as Y/D, YM/D): 3.2
[13]; 221563_at
  DUSP10 expression (given as Y/D, YM/D): 3.8
[14]
  inhibition at 10 µg/mL: 50%
[15]
  DDIT3 expression, % of control: 213 % of control
[16]
  KCNU1 expression, treated/D (DMSO control): −4.0
